Measurements as given in patent publication US12473295B2, “Substituted straight chain spiro derivatives” (Janssen Pharmaceutica NV, priority 2019, dated 2025).
Where a name gives a salt, the structure may show the parent alone. Read-outs that look alike come from different tables or passages of the source.

Tests used:
[1] = target: menin/MLL (terbium chelate-labeled menin, FITC-MBM1 peptide) (Homo sapiens (Human), UniProt O00255); experiment: Menin/MLL homogenous time-resolved fluorescence (HTRF) assay; assay type: binding; settings: HTRF-30 min incubation IC50, 30 min incubation;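 further: IC50 from percent inhibition of HTRF signal, normalized between wells without competitor and wells with a saturating competitor that displaces FITC-MBM1 from His-tagged menin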
MOLM14 cells = experiment: Proliferation assay (spheroid growth, 8 days), MOLM14; assay type: cell-based, human; settings: MOLM14, 8 days, read-out: spheroid assay_OneTime MOLM14 IC50;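 further: spheroid size read as confluence by live-cell imaging, compounds added at a range of concentrations with 0.3% DMSO, DMSO-treated wells = 0%, highest reference dose = low control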
OCI-AML3 cells = experiment: Proliferation assay (spheroid growth, 8 days), OCI-AML3; assay type: cell-based, human; settings: OCI-AML3, 8 days
In short: (§1)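 Spheroid size on day 8, taken as live-cell imaging confluence, served as readout after 8-day compound exposure (0.3% DMSO, 37 °C, 5% CO2) in round-bottom low-attachment wells. Seeding was 200 cells for MOLM14 and OCI-AML3, 300 for KO-52. IC50 came from % effect versus DMSO and reference baseline, fitted with variable slope.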

KO-52 cells = experiment: Proliferation assay (spheroid growth, 8 days), KO-52 control cell line; assay type: cell-based, human; settings: Homo sapiens, […], read-out: spheroid assay_OneTime KO-52 IC50
In short: as §1

MEIS1 mRNA = MEIS1 mRNA expression assay (Quantigene Singleplex) in MOLM14 cells; assay type: cell-based, human; settings: Homo sapiens, MOLM-14, 48 h, 48 hours incubation;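 further: MEIS1 transcript levels read by probe hybridization and normalized to RPL28 mRNA, with IC50 fitted to fold changes across a rising compound concentration series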

menin/MLL (terbium chelate-labeled menin, FITC-MBM1 peptide), sequence (O00255 other isoform, or with tags, fused parts or gaps): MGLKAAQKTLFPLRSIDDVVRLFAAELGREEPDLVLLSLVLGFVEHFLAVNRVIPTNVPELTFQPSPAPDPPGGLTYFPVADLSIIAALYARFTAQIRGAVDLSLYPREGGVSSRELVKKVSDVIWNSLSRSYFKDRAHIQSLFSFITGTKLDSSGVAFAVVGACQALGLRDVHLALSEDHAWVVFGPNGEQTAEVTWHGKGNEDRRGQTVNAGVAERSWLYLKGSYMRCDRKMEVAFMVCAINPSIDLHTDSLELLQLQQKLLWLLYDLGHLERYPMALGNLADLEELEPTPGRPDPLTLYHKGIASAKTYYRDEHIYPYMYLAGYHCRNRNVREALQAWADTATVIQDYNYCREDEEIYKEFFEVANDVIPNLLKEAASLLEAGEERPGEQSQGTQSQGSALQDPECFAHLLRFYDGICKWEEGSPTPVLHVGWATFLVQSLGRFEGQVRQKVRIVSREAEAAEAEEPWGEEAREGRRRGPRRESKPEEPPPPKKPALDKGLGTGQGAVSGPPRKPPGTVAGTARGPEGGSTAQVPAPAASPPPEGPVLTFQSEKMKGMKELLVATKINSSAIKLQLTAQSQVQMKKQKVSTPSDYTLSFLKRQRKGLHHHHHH

## CCN(C(=O)c1cc(F)ccc1Oc1nncnc1N1CCC2(C1)CN([C@H](CCCCN)C(C)C)C2)C(C)C (single isomer, unassigned) [Compound 209, (*R)-2-((5-(2-(7-amino-2-methylheptan-3-yl)-2,6-diazaspiro[3.4]octan-6-yl)-1,2,4-triazin-6-yl)oxy)-N-ethyl-5-fluoro-N-isopropylbenzamide formate]
[1]
  IC50: 0.27 nM
MOLM14 cells; Homo sapiens, MOLM-14, […]
  IC50: 270 nM
OCI-AML3 cells; Homo sapiens, OCI-AML-3, […]
  IC50: 240 nM
KO-52 cells
  IC50: > 15000 nM
MEIS1 mRNA
  IC50: 130 nM

## CCN(C(=O)c1cc(F)ccc1Oc1nncnc1N1CCC2(C1)CN([C@H](CCCCN(C)C)C(C)C)C2)C(C)C (single isomer, unassigned) [Compound 211]
[1]
  IC50: 0.35 nM
MOLM14 cells; Homo sapiens, MOLM-14, […]
  IC50: 150 nM
OCI-AML3 cells; Homo sapiens, OCI-AML-3, […]
  IC50: 97 nM
KO-52 cells
  IC50: > 15000 nM
MEIS1 mRNA
  IC50: 110 nM

## CCN(C(=O)c1cc(F)ccc1Oc1nncnc1N1CCC2(C1)CN([C@H](CCN)C(C)C)C2)C(C)C (single isomer, unassigned) [Compound 219, (*R)-2-((5-(2-(1-amino-4-methylpentan-3-yl)-2,6-diazaspiro[3.4]octan-6-yl)-1,2,4-triazin-6-yl)oxy)-N-ethyl-5-fluoro-N-isopropylbenzamide fumarate]
[1]
  IC50: 0.27 nM
MOLM14 cells; Homo sapiens, MOLM-14, […]
  IC50: 130 nM
OCI-AML3 cells; Homo sapiens, OCI-AML-3, […]
  IC50: 430 nM
KO-52 cells
  IC50: > 15000 nM
MEIS1 mRNA
  IC50: ~230 nM

## CCN(C(=O)c1cc(F)ccc1Oc1nncnc1N1CCC2(C1)CN([C@H](CCNC(C)C)C(C)C)C2)C(C)C (single isomer, unassigned) [Compound 229, (*R)—N-ethyl-5-fluoro-N-isopropyl-2-((5-(2-(1-(isopropylamino)-4-methylpentan-3-yl)-2,6-diazaspiro[3.4]octan-6-yl)-1,2,4-triazin-6-yl)oxy)benzamide fumarate]
[1]
  IC50: 0.37 nM
MOLM14 cells; Homo sapiens, MOLM-14, […]
  IC50: 320 nM
OCI-AML3 cells; Homo sapiens, OCI-AML-3, […]
  IC50: 870 nM
KO-52 cells
  IC50: > 15000 nM
MEIS1 mRNA
  IC50: 360 nM

## CCN(C(=O)c1cc(F)ccc1Oc1nncnc1N1CCC2(C1)CN([C@H](CCNCC(N)=O)C(C)C)C2)C(C)C (single isomer, unassigned) [Compound 230, (*R)-2-((5-(2-(1-((2-amino-2-oxoethyl)amino)-4-methylpentan-3-yl)-2,6-diazaspiro[3.4]octan-6-yl)-1,2,4-triazin-6-yl)oxy)-N-ethyl-5-fluoro-N-isopropylbenzamide]
[1]
  IC50: ~0.88 nM
MOLM14 cells; Homo sapiens, MOLM-14, […]
  IC50: > 940 nM
OCI-AML3 cells; Homo sapiens, OCI-AML-3, […]
  IC50: 1160 nM
KO-52 cells
  IC50: > 15000 nM
MEIS1 mRNA
  IC50: ~940 nM

## CCN(C(=O)c1cc(F)ccc1Oc1nncnc1N1CCC2(C1)CN([C@H](CCCN(C)C[C@@H](C)OC)C(C)C)C2)C(C)C (single isomer, unassigned) [Compound 250, N-ethyl-5-fluoro-N-isopropyl-2-((5-(2-((R)-6-(((*R)-2-methoxypropyl)(methyl)amino)-2-methylhexan-3-yl)-2,6-diazaspiro[3.4]octan-6-yl)-1,2,4-triazin-6-yl)oxy)benzamide oxalate]
[1]
  IC50: 0.18 nM
MOLM14 cells; Homo sapiens, MOLM-14, […]
  IC50: 220 nM
OCI-AML3 cells; Homo sapiens, OCI-AML-3, […]
  IC50: 410 nM
KO-52 cells
  IC50: 7050 nM
MEIS1 mRNA
  IC50: 91 nM

## CCN(C(=O)c1cc(F)ccc1Oc1nncnc1N1CCC2(C1)CN([C@H](CCCN(C)C[C@H](C)OC)C(C)C)C2)C(C)C (single isomer, unassigned) [Compound 251, N-ethyl-5-fluoro-N-isopropyl-2-((5-(2-((R)-6-(((*S)-2-methoxypropyl)(methyl)amino)-2-methylhexan-3-yl)-2,6-diazaspiro[3.4]octan-6-yl)-1,2,4-triazin-6-yl)oxy)benzamide oxalate]
[1]
  IC50: 0.18 nM
MOLM14 cells; Homo sapiens, MOLM-14, […]
  IC50: 52 nM
OCI-AML3 cells; Homo sapiens, OCI-AML-3, […]
  IC50: 130 nM
KO-52 cells
  IC50: 3900 nM
MEIS1 mRNA
  IC50: 19 nM

## CCN(C(=O)c1cc(F)ccc1Oc1nncnc1N1CCC2(C1)CN(C(C(C)C)C(C)CCN(C)CCOC)C2)C(C)C (single isomer, unassigned) [Compound 266, N-ethyl-5-fluoro-N-isopropyl-2-((5-(2-(6-((2-methoxyethyl)(methyl)amino)-2,4-dimethylhexan-3-yl)-2,6-diazaspiro[3.4]octan-6-yl)-1,2,4-triazin-6-yl)oxy)benzamide (mixture of R,R and S,S; or mixture of R,S and S,R) fumarate]
[1]
  IC50: 0.92 nM
MOLM14 cells
  IC50: 29 nM
OCI-AML3 cells
  IC50: 49 nM
KO-52 cells
  IC50: > 15000 nM
MEIS1 mRNA
  IC50: 39 nM

## CCN(C(=O)c1cc(F)ccc1Oc1nncnc1N1CCC2(C1)CN([C@H](CCNCCO)C(C)C)C2)C(C)C (single isomer, unassigned) [Compound 268, (*R)—N-ethyl-5-fluoro-2-((5-(2-(1-((2-hydroxyethyl)amino)-4-methylpentan-3-yl)-2,6-diazaspiro[3.4]octan-6-yl)-1,2,4-triazin-6-yl)oxy)-N-isopropylbenzamide fumarate]
[1]
  IC50: 0.29 nM
MOLM14 cells; Homo sapiens, MOLM-14, […]
  IC50: 200 nM
OCI-AML3 cells; Homo sapiens, OCI-AML-3, […]
  IC50: 530 nM
KO-52 cells
  IC50: > 15000 nM
MEIS1 mRNA
  IC50: 340 nM

## CCN(C(=O)c1cc(F)ccc1Oc1nncnc1N1CCC2(C1)CN([C@H](CCN(C)CCO)C(C)C)C2)C(C)C (single isomer, unassigned) [Compound 270, (*R)—N-ethyl-5-fluoro-2-((5-(2-(1-((2-hydroxyethyl)(methyl)amino)-4-methylpentan-3-yl)-2,6-diazaspiro[3.4]octan-6-yl)-1,2,4-triazin-6-yl)oxy)-N-isopropylbenzamide fumarate]
[1]
  IC50: 0.54 nM
MOLM14 cells; Homo sapiens, MOLM-14, […]
  IC50: 140 nM
OCI-AML3 cells; Homo sapiens, OCI-AML-3, […]
  IC50: 480 nM
KO-52 cells
  IC50: > 15000 nM
MEIS1 mRNA
  IC50: 220 nM

## CCN(C(=O)c1cc(F)ccc1Oc1nncnc1N1CCC2(C1)CN([C@H](CCNCCCOC)C(C)C)C2)C(C)C (single isomer, unassigned) [Compound 271, (*R)—N-ethyl-5-fluoro-N-isopropyl-2-((5-(2-(1-((3-methoxypropyl)amino)-4-methylpentan-3-yl)-2,6-diazaspiro[3.4]octan-6-)-1,2,4-triazin-6-yl)oxy)benzamide]
[1]
  IC50: 0.27 nM
MOLM14 cells; Homo sapiens, MOLM-14, […]
  IC50: 65 nM
OCI-AML3 cells; Homo sapiens, OCI-AML-3, […]
  IC50: 160 nM
KO-52 cells
  IC50: > 15000 nM
MEIS1 mRNA
  IC50: 100 nM

## CCNCC[C@H](C(C)C)N1CC2(CCN(c3ncnnc3Oc3ccc(F)cc3C(=O)N(CC)C(C)C)C2)C1 (single isomer, unassigned) [Compound 272, (*R)—N-ethyl-2-((5-(2-(1-(ethylamino)-4-methylpentan-3-yl)-2,6-diazaspiro[3.4]octan-6-yl)-1,2,4-triazin-6-yl)oxy)-5-fluoro-N-isopropylbenzamide formate]
[1]
  IC50: 0.58 nM
MOLM14 cells; Homo sapiens, MOLM-14, […]
  IC50: 130 nM
OCI-AML3 cells; Homo sapiens, OCI-AML-3, […]
  IC50: 440 nM
KO-52 cells
  IC50: > 15000 nM
MEIS1 mRNA
  IC50: 170 nM

## CCN(C(=O)c1cc(F)ccc1Oc1nncnc1N1CCC2(C1)CN([C@H](CCNCCCO)C(C)C)C2)C(C)C (single isomer, unassigned) [Compound 273, (*R)—N-ethyl-5-fluoro-2-((5-(2-(1-((3-hydroxypropyl)amino)-4-methylpentan-3-yl)-2,6-diazaspiro[3.4]octan-6-yl)-1,2,4-triazin-6-yl)oxy)-N-isopropylbenzamide]
[1]
  IC50: 0.21 nM
MOLM14 cells; Homo sapiens, MOLM-14, […]
  IC50: 390 nM
OCI-AML3 cells; Homo sapiens, OCI-AML-3, […]
  IC50: 830 nM
KO-52 cells
  IC50: > 15000 nM
MEIS1 mRNA
  IC50: ~390 nM

## CCN(C(=O)c1cc(F)ccc1Oc1nncnc1N1CCC2(C1)CN([C@H](CCN(C)CCCO)C(C)C)C2)C(C)C (single isomer, unassigned) [Compound 274, (*R)—N-ethyl-5-fluoro-2-((5-(2-(1-((3-hydroxypropyl)(methyl)amino)-4-methylpentan-3-yl)-2,6-diazaspiro[3.4]octan-6-yl)-1,2,4-triazin-6-yl)oxy)-N-isopropylbenzamide]
[1]
  IC50: 0.38 nM
MOLM14 cells; Homo sapiens, MOLM-14, […]
  IC50: 200 nM
OCI-AML3 cells; Homo sapiens, OCI-AML-3, […]
  IC50: 640 nM
KO-52 cells
  IC50: > 15000 nM
MEIS1 mRNA
  IC50: 230 nM

## CCN(C(=O)c1cc(F)ccc1Oc1nncnc1N1CCC2(C1)CN([C@H](CCN(C)CCCOC)C(C)C)C2)C(C)C (single isomer, unassigned) [Compound 275, (*R)—N-ethyl-5-fluoro-N-isopropyl-2-((5-(2-(1-((3-methoxypropyl)(methyl)amino)-4-methylpentan-3-yl)-2,6-diazaspiro[3.4]octan-6-yl)-1,2,4-triazin-6-yl)oxy)benzamide]
[1]
  IC50: 0.66 nM
MOLM14 cells; Homo sapiens, MOLM-14, […]
  IC50: 78 nM
OCI-AML3 cells; Homo sapiens, OCI-AML-3, […]
  IC50: 330 nM
KO-52 cells
  IC50: > 15000 nM
MEIS1 mRNA
  IC50: 100 nM

## CCN(C(=O)c1cc(F)ccc1Oc1nncnc1N1CCC2(C1)CN([C@H](CCN(C)CCOC)C(C)C)C2)C(C)C (single isomer, unassigned) [Compound 276, (*R)—N-ethyl-5-fluoro-N-isopropyl-2-((5-(2-(1-((2-methoxyethyl)(methyl)amino)-4-methylpentan-3-yl)-2,6-diazaspiro[3.4]octan-6-yl)-1,2,4-triazin-6-yl)oxy)benzamide]
[1]
  IC50: 0.5 nM
MOLM14 cells; Homo sapiens, MOLM-14, […]
  IC50: 240 nM
OCI-AML3 cells; Homo sapiens, OCI-AML-3, […]
  IC50: 1610 nM
KO-52 cells
  IC50: > 15000 nM
MEIS1 mRNA
  IC50: 390 nM

## CCN(C(=O)c1cc(F)ccc1Oc1nncnc1N1CCC2(C1)CN([C@H](CCNCCC(N)=O)C(C)C)C2)C(C)C (single isomer, unassigned) [Compound 278, (*R)-2-((5-(2-(1-((3-amino-3-oxopropyl)amino)-4-methylpentan-3-yl)-2,6-diazaspiro[3.4]octan-6-yl)-1,2,4-triazin-6-yl)oxy)-N-ethyl-5-fluoro-N-isopropylbenzamide fumarate]
[1]
  IC50: 0.068 nM
MOLM14 cells; Homo sapiens, MOLM-14, […]
  IC50: > 940 nM
OCI-AML3 cells; Homo sapiens, OCI-AML-3, […]
  IC50: 3210 nM
KO-52 cells
  IC50: > 15000 nM
MEIS1 mRNA
  IC50: > 1000 nM
